# Measured values taken from patent publication US20220380347A1, “INHIBITORS OF CYSTEINE PROTEASES AND METHODS OF USE THEREOF” (Pardes Biosciences, Inc., priority 2020, published 2022).
# Like-named read-outs stand apart in the source and are kept apart here.
# Key:
# [1] = molecular target: COVID-19 (nCoV-2019, SARS-CoV2) Mpro (Severe acute respiratory syndrome coronavirus 2, UniProt P0DTD1); assay: COVID-19 (nCoV-2019, SARS-CoV2) Mpro enzymatic assay; type: biochemical; details: 25 nM Mpro, 25 μM substrate; read-out: COVID-19 Mpro IC50
# 229E Mpro = 229E Mpro (Human coronavirus 229E, UniProt P0C6X1); assay: 229E Mpro enzymatic assay (standard methods, SARS-CoV2 Mpro assay given as exemplary); type: biochemical, human coronavirus (HCov) 229E
# Chain of 229E Mpro (P0C6X1 2966-3267): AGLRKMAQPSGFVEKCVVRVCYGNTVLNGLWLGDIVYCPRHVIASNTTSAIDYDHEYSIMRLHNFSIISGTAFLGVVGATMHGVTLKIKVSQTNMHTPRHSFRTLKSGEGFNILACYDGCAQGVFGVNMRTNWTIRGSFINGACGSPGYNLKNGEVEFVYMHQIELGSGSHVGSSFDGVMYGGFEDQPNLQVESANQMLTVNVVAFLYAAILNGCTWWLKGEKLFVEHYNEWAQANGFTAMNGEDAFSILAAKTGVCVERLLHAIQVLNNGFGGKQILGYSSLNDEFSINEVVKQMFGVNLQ
# How it was run: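 Run by standard methods, with the SARS-CoV-2 Mpro protocol given as the model: E. coli-expressed C-His6 protease at 25 nM and substrate at 25 μM (Km 13.5 μM). Buffer pH 7.3 with 5 mM TCEP and 0.1% BSA; % inhibition versus controls fitted to variable-slope log(inhibitor)-response for IC50.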
# HCov OC43 = assay: HCoV OC43 cytopathic effect (CPE) assay, CellTiter Glo; type: cell-based, human coronavirus (HCov) OC43
# HCoV 229E = HCoV 229E cytopathic effect (CPE) assay, CellTiter Glo; type: cell-based, human coronavirus (HCov) 229E; details: protection of virus-induced CPE
# Method: Example 238: Evaluation of antiviral activity of compounds against human coronavirus (HCov) 229E and OC43 in the cytopathic effect (CPE) assays
# Compounds were assayed using standard methods against multiple coronaviral strains, including HCoV 229E and OC43 strains. The antiviral activity of compounds was calculated based on the protection of the virus-induced CPE at each concentration normalized by the virus control.
# Cytopathic effect (CPE) was measured by CellTiter Glo following the manufacturer's manual. The antiviral activity of compounds was calculated based on the protection of the virus-induced CPE at each concentration normalized by the virus control.
# Cell viability was measured with CellTiter Glo.
# [2] = read-out: OC43 IC50 (uM) MEDIAN, median
# [3] = Betacoronavirus 1, OC43, read-out: OC43 IC50 (uM) MEDIAN, median
Compound,IC50 [1],EC50 (HCoV 229E; unidentified human coronavirus),EC50 (229E Mpro; 229E Mpro EC50),IC50 (HCov OC43; [3]),also measured
"CO[C@@H]1C[C@H](C(=O)N(c2ccc(C(C)(C)C)cc2)C(C(=O)NC2CCCCC2)c2cccnc2)N(C#N)C1 (single isomer, unassigned) [Compound 292 Isomer 2]",< 2000 nM,< 2000 nM,,,EC50 (229E Mpro; read-out: 229E Mpro EC50): < 2000 nM; IC50 (HCov OC43; [2]): < 2 µM
"CO[C@H]1C[C@H](C(=O)N(c2ccc(C(C)(C)C)cc2)C(C(=O)NC2CCCCC2)c2cccnc2)N(C#N)C1 (single isomer, unassigned) [Compound 293 Isomer 1]",< 2000 nM,< 2000 nM,< 2000 nM,,"IC50 (HCov OC43; read-out: OC43 IC50 (uM) MEDIAN, median, listed as 293 Isomer 1): < 2 µM"
"CC(C)(C)O[C@@H]1C[C@H](C(=O)N(c2ccc(C(C)(C)C)cc2)C(C(=O)NC2CCCCC2)c2cccnc2)N(C#N)C1 (single isomer, unassigned) [Compound 299 Isomer 2]",< 2000 nM,< 2000 nM,< 2000 nM,,"IC50 (HCov OC43; read-out: OC43 IC50 (uM) MEDIAN, median, listed as 299 Isomer 2): 2 to 10 µM"
"CC(C)(C)c1ccc(N(C(=O)[C@H]2C[C@H](Oc3ccccc3)CN2C#N)C(C(=O)NC2CCCCC2)c2cccnc2)cc1 (single isomer, unassigned) [Compound 308 Isomer 2]",< 2000 nM,< 2000 nM,< 2000 nM,,IC50 (HCov OC43; [2]): > 30 µM
"CC(C)(C)c1ccc(N(C(=O)[C@H]2CCCN2C#N)C(C(=O)NCC2COC2)c2cccnc2)cc1 (single isomer, unassigned) [Compound 419 Isomer 1]",< 2000 nM,2000 to 10000 nM,< 2000 nM,2 to 10 µM,
"COC(C)(C)CNC(=O)C(c1cccnc1)N(C(=O)[C@H]1CCCN1C#N)c1ccc(C(C)(C)C)cc1 (single isomer, unassigned) [Compound 427 Isomer 2]",< 2000 nM,< 2000 nM,< 2000 nM,,"IC50 (HCov OC43; read-out: OC43 IC50 (uM) MEDIAN, median, listed as 427 Isomer 2): 2 to 10 µM"
"CN(C)CCNC(=O)C(c1cccnc1)N(C(=O)[C@H]1CCCN1C#N)c1ccc(C(C)(C)C)cc1 (single isomer, unassigned) [Compound 435 Isomer 1]",2000 to 10000 nM,2000 to 10000 nM,< 2000 nM,,"IC50 (HCov OC43; read-out: OC43 IC50 (uM) MEDIAN, median, listed as 435 Isomer 1): 2 to 10 µM"
"Cc1c[nH]c2cc(N(C(=O)[C@H]3C[C@@H](O)CN3C#N)C(C(=O)NC3CCC(F)(F)CC3)c3cncc(F)c3)ccc12 (single isomer, unassigned) [Compound 747b Isomer 1]",< 2000 nM,2000 to 10000 nM,< 2000 nM,< 2 µM,
"N#CN1C[C@H](O)C[C@@H]1C(=O)N(c1ccc2c(c1)NCCC2)C(C(=O)NC1CCCCC1)c1cccnc1 (single isomer, unassigned) [Compound 755 Isomer 1]",< 2000 nM,< 2000 nM,< 2000 nM,< 2 µM,
"N#CN1C[C@H](O)C[C@@H]1C(=O)N(c1ccc2c(c1)NCCC2)C(C(=O)NC1CCCCC1)c1cccnc1 (single isomer, unassigned) [Compound 755 Isomer 2]",10000 to 30000 nM,,2000 to 10000 nM,,IC50 (HCov OC43; [2]): 2 to 10 µM; EC50 (HCoV 229E): < 2000 nM
"N#CN1C[C@H](O)C[C@@H]1C(=O)N(c1ccc(C2CC2)cc1F)C(C(=O)NC1CCCCC1)c1cccnc1 (single isomer, unassigned) [Compound 763 Isomer 2]",10000 to 30000 nM,< 2000 nM,2000 to 10000 nM,,IC50 (HCov OC43; [2]): 2 to 10 µM
"N#CN1C[C@H](O)C[C@@H]1C(=O)N(c1ccc(C2CC2)c(F)c1)C(C(=O)NC1CCCCC1)c1cccnc1 (single isomer, unassigned) [Compound 767 Isomer 1]",< 2000 nM,2000 to 10000 nM,< 2000 nM,< 2 µM,
"N#CN1C[C@H](O)C[C@@H]1C(=O)N(c1ccc(C(F)(C(F)(F)F)C(F)(F)F)cc1)C(C(=O)NC1CCCCC1)c1cccnc1 (single isomer, unassigned) [Compound 779 Isomer 1]",< 2000 nM,2000 to 10000 nM,< 2000 nM,< 2 µM,
"N#CN1C[C@H](O)C[C@@H]1C(=O)N(c1ccc(S(F)(F)(F)(F)F)cc1)C(C(=O)NC1CCCCC1)c1cccnc1 (single isomer, unassigned) [Compound 791 Isomer 2]",2000 to 10000 nM,< 2000 nM,,,EC50 (229E Mpro; read-out: 229E Mpro EC50): < 2000 nM; IC50 (HCov OC43; [2]): < 2 µM
"CC(C)(C)c1ccc(N(C(=O)[C@H]2C[C@@H](F)CN2C#N)C(C(=O)NC2CCCCC2)c2cccnc2)cc1 (single isomer, unassigned) [Compound 870 Isomer 1]",< 2000 nM,< 2000 nM,< 2000 nM,< 2 µM,
"CC(C)(C)c1ccc(N(C(=O)[C@H]2C[C@@H](F)CN2C#N)C(C(=O)NC2CCCCC2)c2cccnc2)cc1 (single isomer, unassigned) [Compound 870 Isomer 2]",2000 to 10000 nM,,,,EC50 (229E Mpro; read-out: 229E Mpro EC50): < 2000 nM; IC50 (HCov OC43; [2]): < 2 µM; EC50 (HCoV 229E): 2000 to 10000 nM
"CC(C)(C)c1ccc(N(C(=O)[C@H]2CC(F)(F)CN2C#N)C(C(=O)NC2CCCCC2)c2cccnc2)cc1 (single isomer, unassigned) [Compound 876 Isomer 1]",2000 to 10000 nM,< 2000 nM,< 2000 nM,,"IC50 (HCov OC43; read-out: OC43 IC50 (uM) MEDIAN, median, listed as 876 Isomer 1): 10 to 30 µM"
"C[C@@]1(O)C[C@H](C(=O)N(c2ccc(S(F)(F)(F)(F)F)cc2)C(C(=O)NC2CCC(F)(F)CC2)c2cccnc2)N(C#N)C1 (single isomer, unassigned) [Compound 1156 Isomer 1]",2000 to 10000 nM,< 2000 nM,< 2000 nM,2 to 10 µM,
"C[C@@]1(O)C[C@H](C(=O)N(c2ccc(S(F)(F)(F)(F)F)cc2)C(C(=O)NC2CCC(F)(F)CC2)c2cccnc2)N(C#N)C1 (single isomer, unassigned) [Compound 1156 Isomer 2]",< 2000 nM,,,,EC50 (229E Mpro; read-out: 229E Mpro EC50): < 2000 nM; IC50 (HCov OC43; [2]): < 2 µM; EC50 (HCoV 229E): 2000 to 10000 nM
CC(C)(C)c1ccc(N(C(=O)C2CS(=O)(=O)CCN2C#N)C(C(=O)NC2CCCCC2)c2cccnc2)cc1 (stereo not drawn) [Compound 226],< 2000 nM,2000 to 10000 nM,< 2000 nM,2 to 10 µM,
"CC(C)(C)c1ccc(N(C(=O)[C@H]2CCCN2C#N)C(C(=O)NCC(=O)N2CCOCC2)c2cccnc2)cc1 (stereo partly drawn) [Compound 403, (2R)—N-(4-(tert-butyl)phenyl)-1-cyano-N-(2-((2-morpholino-2-oxoethyl)amino)-2-oxo-1-(pyridin-3-yl)ethyl)pyrrolidine-2-carboxamide]",< 2000 nM,2000 to 10000 nM,< 2000 nM,2 to 10 µM,
"CN(C)C(=O)CNC(=O)C(c1cccnc1)N(C(=O)[C@H]1CCCN1C#N)c1ccc(C(C)(C)C)cc1 (stereo partly drawn) [Compound 415, (2R)—N-(4-(tert-butyl)phenyl)-1-cyano-N-(2-((2-(dimethylamino)-2-oxoethyl)amino)-2-oxo-1-(pyridin-3-yl)ethyl)pyrrolidine-2-carboxamide]",2000 to 10000 nM,2000 to 10000 nM,< 2000 nM,2 to 10 µM,
"CC(C)(C)c1ccc(N(C(=O)[C@H]2C[C@@H](O)CN2C#N)C(C(=O)Nc2c(Cl)cccc2Cl)c2cccnc2)cc1 (stereo partly drawn) [Compound 591, (2R,4R)—N-(4-(tert-butyl)phenyl)-1-cyano-N-(2-((2,6-dichlorophenyl)amino)-2-oxo-1-(pyridin-3-yl)ethyl)-4-hydroxypyrrolidine-2-carboxamide]",2000 to 10000 nM,2000 to 10000 nM,2000 to 10000 nM,> 30 µM,
"CC(C)(C)c1ccc(N(C(=O)[C@H]2C[C@@H](O)CN2C#N)C(C(=O)NC2CCCCC2)c2c[nH]nn2)cc1 (stereo partly drawn) [Compound 663, (2R,4R)—N-(4-(tert-butyl)phenyl)-1-cyano-N-(2-(cyclohexylamino)-2-oxo-1-(1H-1,2,3-triazol-4-yl)ethyl)-4-hydroxypyrrolidine-2-carboxamide]",2000 to 10000 nM,< 2000 nM,< 2000 nM,2 to 10 µM,
"Cc1nc2ccc(N(C(=O)[C@H]3C[C@@H](O)CN3C#N)C(C(=O)NC3CCCCC3)c3cccnc3)cc2[nH]1 (stereo partly drawn) [Compound 759, (2R,4R)-1-cyano-N-(2-(cyclohexylamino)-2-oxo-1-(pyridin-3-yl)ethyl)-4-hydroxy-N-(2-methyl-1H-benzo[d]imidazol-6-yl)pyrrolidine-2-carboxamide]",> 30000 nM,< 2000 nM,> 30000 nM,> 30 µM,
"CC(C)(C)c1ccc(N(C(=O)[C@H]2CCCN2C#N)C(C(=O)N2CC(F)C2)c2cccnc2)cc1 (stereo partly drawn) [Compound 952, (2R)—N-(4-(tert-butyl)phenyl)-1-cyano-N-(2-(3-fluoroazetidin-1-yl)-2-oxo-1-(pyridin-3-yl)ethyl)pyrrolidine-2-carboxamide]",2000 to 10000 nM,2000 to 10000 nM,< 2000 nM,2 to 10 µM,
CN1CCN(C(=O)C(c2cccnc2)N(C(=O)[C@H]2CCCN2C#N)c2ccc(C(C)(C)C)cc2)CC1=O (stereo partly drawn) [Compound 969],< 2000 nM,2000 to 10000 nM,< 2000 nM,2 to 10 µM,
